Earlier results as cited in patent publication US20030143291A1, “Herbal compositions and methods for diabetes and weight loss management” (priority 2002, published 2003).

Tests used:
[1] = tested on: Methicillin-resistant s. aureus

CC(C)C1=C2CCC(COC(=O)c3ccc(O)cc3)=CCC2(C)CC1 (centres unmarked) [Compound 6, 14-(4′-hydroxybenzoyloxy)dauc-4,8-diene]
antimicrobial activity against Staphylococcus aures (Staphylococcus aures): antimicrobial activity
antimicrobial activity against Methicillin-resistant s. aureus [1]: antimicrobial activity
